According to patent US6592821B1, “Focusing of microparticles in microfluidic systems” (Caliper Technologies Corp., priority 1999, dated 2003):

Experiments:
Assay type in all cases: cell-based
[1] = system: HL-60 cells; test: TUNEL assay for apoptosis in microfluidic device; settings: HL-60 cells treated for 6 hours; FIG. 8, untreated control FIG. 9
[2] = system: HL60 cells; test: Annexin-V assay for apoptosis in microfluidic device; settings: HL60 cells treated for four hours; FIG. 12, untreated control FIG. 13
[3] = system: U937 cells; test: TUNEL assay for apoptosis in microfluidic device; settings: U937 cells treated to induce apoptosis; FIG. 5, untreated control FIG. 4
Protocol: A TUNEL assay (TdT (Terminal deoxynucleotidyl transferase)-mediated dUTP Nick End Labeling) was used to measure cellular apoptosis in accordance with the above-described methods and systems. In a TUNEL Assay, damaged DNA is labeled with fluorescinated nucleotides. Terminal deoxynucleotidyl transferase (TdT) binds to exposed 3′ ends of DNA fragments generated in response to apoptotic signals and catalyzes the addition of fluorescein-labeled deoxynucleotides. U937 cells were treated with Campthotecin to induce apoptosis. The cells were then harvested and fixed with 4% formaldehyde and stored in 80% ethanol at +4° C. until labeling was performed.
The cells were rehydrated in TBS buffer. They were then treated with 20 μg/ml of proteinase K for 5 minutes and resuspended in equilibration buffer. The cells were incubated in a working TdT labeling reaction mixture from Oncogene Research Products containing TdtT enzyme and FragEL TdT labeling reaction mix. […]
After washing the cells in TBS, they were resuspended in Hanks' Balanced Salt Solution with 10% OPTIPREP at 5×10^6/ml and loaded in a microfluidic device having the channel geometry shown in FIG. 1A, for analysis. Fluorescence was detected using 488 nm excitation, while emission was read at 525 nm and 680 nm.

[4] = system: U937 cells; test: Annexin-V assay for apoptosis in microfluidic device; settings: U937 cells treated to induce apoptosis; FIG. 7, untreated control FIG. 6
Protocol: In an Annexin-V assay, change in the outer membrane of apoptotic cells is detected. A membrane component, phosphatidylserine (PS) is translocated to the outer layer. Annexin-V binds to PS and is conjugated to biotin to allow secondary reactions to fluorescently labeled Streptavidin for detection. U937 cells were treated with Campthotecin to induce apoptosis. The cells were harvested and washed in phosphate buffered saline (PBS). Cells were incubated with Annexin-V-Biotin (Boehringer Mannheim) in HEPES buffer, and then incubated with 5 μg streptavidin-Cy5 (Amersham) and […] of Calcein-AM dye in HEPES buffer. The HEPES buffer solution contained 10 mM HEPES, pH 7.4; 140 mM NaCl; and a 5 mM CaCl2. The cells were washed and resuspended in HEPES buffer with 8.5% sucrose and loaded in a microfluidic device for analysis. Fluorescence was detected using excitation at 488 nm and 635 nm, and emission was read at 525 nm and 682 nm.

Structure (SMILES): CC[C@@]1(O)C(=O)OCc2c1cc1n(c2=O)Cc2cc3ccccc3nc2-1 [Campthotecin]
- apoptotic cells labeled at DNA damage points vs total cell count [1]: almost all cells had sustained apoptotic DNA damage
- apoptotic cells (Annexin-V-Cy5 labeling vs Calcein live cell count) [2]: almost all cells are apoptotic
- apoptotic cells (fluorescein end labeled nucleic acid peaks vs SYTO-62 cell peaks) [3]: corresponding peaks are seen on both the lower and upper lines, indicating the presence of apoptotic cells
- apoptotic cells (Annexin-V-Cy5 peaks vs Calcein live cell count) [4]: much greater number of peaks representing apoptotic cells
